Experimental data taken from patent publication US12498382B2, “Biomarkers for vitiligo” (INCYTE CORPORATION, priority 2019, dated 2025).

Test system: HaCaT cells
Assay: Normalized expression of target genes in HaCaT cells stimulated with TNFα and IFNγ in presence/absence of JAK inhibitors (QuantiGene Plex)
Assay type: cell-based, human
Conditions: for MFI, normalized expression of IYK2: gene IYK2; for MFI, normalized expression of IYK2 / MFI, normalized expression of TNF / MFI, normalized expression of VEGFA: HaCaT, normalized to HPRT1, mean ± standard error; for MFI, normalized expression of TNF: gene TNF; for MFI, normalized expression of VEGFA: gene VEGFA
Protocol: Transformed human keratinocyte (HaCaT) cells were purchased from AddexBio (Catalog #T0020001) and cultured as outlined in Example 5. […] After 48 hours, cell culture media was removed from 24 well plates and replaced with 250 uL of media containing serial diluted drug, then incubated for 15 minutes at 37° C./5% CO2. After drug incubation, 250 uL of combinatory stimulation containing Recombinant Human Interferon gamma (R&D Systems, Catalog #285-IF-100) and Recombinant Human Tumor Necrosis Factor alpha (R&D Systems, Catalog #210-TA-020) was added to plates. The final concentration of Recombinant Human Interferon gamma and Recombinant Human Tumor Necrosis Factor alpha was 25 ng/mL of each cytokine. Cytokine stimulation added to wells containing drug brought the final concentrations for each drug treatment to 25 nM, 50 nM, 100 nM, and 200 nM. Treated plates were mixed by gentle agitation for 30 seconds then incubated for 24 hours at 37° C./5% CO2. At the end of the 24 hour incubation media was immediately removed from each plate.
RNA was isolated from HaCaT cells using the QuantiGene Plex Assay reagents and protocols (Affymetrix, Catalog #QGP-232-M18042302) according to the manufacturer's guidelines. Cells were washed with 1×DPBS then lysed by incubation with provided QuantiGene lysis buffer for 30 minutes at 50-55° C. Cell lysates were incubated for 18-24 hours at 55° C. with capture beads and probe set designed to specifically hybridize to mRNA from targets of interest. Genes included housekeeping genes (e.g., HPRT1 and GAPDH) used for the normalization of the results. After the 18-24 hour incubation signal was amplified utilizing branched DNA methodologies, according to the manufacturer's procedures (Affymetrix, Catalog #QGP-232-M18042302). After hybridization and wash steps assay plate was read on the Luminex 200 and data were expressed as Net Median Fluorescence Intensity. Data was then normalized to the Net Median Fluorescence Intensity of the housekeeping gene HPRT1 (Table 14).

[1] = TNFα+IFNγ 25 ng/mL, Drug Conc 25 nM
[2] = TNFα+IFNγ 25 ng/mL, Drug Conc 50 nM
[3] = TNFα+IFNγ 25 ng/mL, Drug Conc 100 nM
[4] = TNFα+IFNγ 25 ng/mL, Drug Conc 200 nM
[5] = TNFα (25 ng/mL) and IFNγ (25 ng/mL), 1st (lowest, likely 25 nM) of 4 drug conc
[6] = TNFα (25 ng/mL) and IFNγ (25 ng/mL), 2nd (likely 50 nM) of 4 drug conc
[7] = TNFα (25 ng/mL) and IFNγ (25 ng/mL), 3rd (likely 100 nM) of 4 drug conc
[8] = TNFα (25 ng/mL) and IFNγ (25 ng/mL), 4th (highest, likely 200 nM) of 4 drug conc
[9] = drug without TNFα/IFNγ stimulation
[10] = no stimulation, Drug Conc 200 nM

## C[C@@H](O)c1nc2cnc3ccsc3c2n1[C@H]1CC[C@H](CC#N)OC1 [Cpd D, ((2R,5S)-5-{2-[(1R)-1-hydroxyethyl]-1H-imidazo[4,5-d]thieno[3,2-b]pyridin-1-yl}tetrahydro-2H-pyran-2-yl)acetonitrile]
[1]
  AREG normalized expression MFI: 725.6 ± 33.78
  CCL17 normalized expression MFI: 3.08 ± 0.64
  CCL18 normalized expression MFI: 1.89 ± 0.28
  FLG normalized expression MFI: 71.27 ± 11.09
  IL6 normalized expression MFI: 132.28 ± 7.41
  IL8 normalized expression MFI: 398.64 ± 22.41
  IL17A normalized expression MFI: 1.05 ± 0.18
  IL22 normalized expression MFI: 1.39 ± 0.23
  IL23A normalized expression MFI: 48.01 ± 2.69
  IL31 normalized expression MFI: 1.99 ± 0.4
  ILIA normalized expression MFI: 1269.66 ± 50.59
  JAK1 normalized expression MFI: 200.4 ± 9.84
  JAK2 normalized expression MFI: 108.89 ± 3.25
  JAK3 normalized expression MFI: 0.97 ± 0.18
  LOR normalized expression MFI: 23 ± 9.47
  S100A7 normalized expression MFI: 5.37 ± 1.3
  S100A12 normalized expression MFI: 1.31 ± 0.18
  SERPINB3 normalized expression MFI: 2 ± 0.3
  SERPINB4 normalized expression MFI: 2.78 ± 0.31
  STAT1 normalized expression MFI: 3156.82 ± 244.78
  STAT3 normalized expression MFI: 1572.76 ± 65.5
  STAT4 normalized expression MFI: 5.4 ± 0.45
  STAT5A normalized expression MFI: 20.12 ± 1.29
  STAT5B normalized expression MFI: 38.56 ± 2.02
  STAT6 normalized expression MFI: 1042.76 ± 29.23
[2]
  AREG normalized expression MFI: 778.42 ± 44.28
  CCL17 normalized expression MFI: 2.71 ± 0.41
  CCL18 normalized expression MFI: 2.16 ± 0.22
  FLG normalized expression MFI: 78.47 ± 10.63
  IL6 normalized expression MFI: 137.61 ± 5.87
  IL8 normalized expression MFI: 417.47 ± 21.97
  IL17A normalized expression MFI: 1.06 ± 0.15
  IL22 normalized expression MFI: 1.4 ± 0.21
  IL23A normalized expression MFI: 56.64 ± 3.44
  IL31 normalized expression MFI: 1.82 ± 0.44
  ILIA normalized expression MFI: 1336.95 ± 50.97
  JAK1 normalized expression MFI: 210.52 ± 7.73
  JAK2 normalized expression MFI: 106.83 ± 5.94
  JAK3 normalized expression MFI: 0.99 ± 0.2
  LOR normalized expression MFI: 28.28 ± 10.86
  S100A7 normalized expression MFI: 5.94 ± 1.23
  S100A12 normalized expression MFI: 1.11 ± 0.18
  SERPINB3 normalized expression MFI: 2.54 ± 0.33
  SERPINB4 normalized expression MFI: 3.2 ± 0.53
  STAT1 normalized expression MFI: 3009.6 ± 169.64
  STAT3 normalized expression MFI: 1543.4 ± 58.65
  STAT4 normalized expression MFI: 6.1 ± 0.36
  STAT5A normalized expression MFI: 22.69 ± 1.71
  STAT5B normalized expression MFI: 40.76 ± 1.91
  STAT6 normalized expression MFI: 1046.46 ± 29.12
[3]
  AREG normalized expression MFI: 703.3 ± 37.3
  CCL17 normalized expression MFI: 2.86 ± 0.3
  CCL18 normalized expression MFI: 1.74 ± 0.26
  FLG normalized expression MFI: 69.64 ± 9.33
  IL6 normalized expression MFI: 122.46 ± 5.35
  IL8 normalized expression MFI: 410.72 ± 29.84
  IL17A normalized expression MFI: 0.84 ± 0.16
  IL22 normalized expression MFI: 1.24 ± 0.22
  IL23A normalized expression MFI: 51.42 ± 2.55
  IL31 normalized expression MFI: 1.61 ± 0.35
  ILIA normalized expression MFI: 1244.96 ± 41.03
  JAK1 normalized expression MFI: 200.25 ± 8.15
  JAK2 normalized expression MFI: 102.64 ± 3.52
  JAK3 normalized expression MFI: 1.01 ± 0.17
  LOR normalized expression MFI: 21.29 ± 9.59
  S100A7 normalized expression MFI: 4.6 ± 1.68
  S100A12 normalized expression MFI: 1.12 ± 0.15
  SERPINB3 normalized expression MFI: 2 ± 0.26
  SERPINB4 normalized expression MFI: 2.64 ± 0.3
  STAT1 normalized expression MFI: 2991.9 ± 200.56
  STAT3 normalized expression MFI: 1549.17 ± 89.41
  STAT4 normalized expression MFI: 5.83 ± 0.34
  STAT5A normalized expression MFI: 19.54 ± 1.34
  STAT5B normalized expression MFI: 40.91 ± 2.17
  STAT6 normalized expression MFI: 985.1 ± 39.79
[4]
  AREG normalized expression MFI: 713.33 ± 37.27
  CCL17 normalized expression MFI: 2.34 ± 0.4
  CCL18 normalized expression MFI: 1.57 ± 0.3
  FLG normalized expression MFI: 72.06 ± 11.85
  IL6 normalized expression MFI: 119.49 ± 4.42
  IL8 normalized expression MFI: 367.56 ± 17.81
  IL17A normalized expression MFI: 0.82 ± 0.13
  IL22 normalized expression MFI: 1.28 ± 0.2
  IL23A normalized expression MFI: 53.83 ± 3.54
  IL31 normalized expression MFI: 1.51 ± 0.36
  ILIA normalized expression MFI: 1163.14 ± 26.71
  JAK1 normalized expression MFI: 190.53 ± 7.68
  JAK2 normalized expression MFI: 92.21 ± 2.9
  JAK3 normalized expression MFI: 0.86 ± 0.16
  LOR normalized expression MFI: 17 ± 7.28
  S100A7 normalized expression MFI: 3.77 ± 0.91
  S100A12 normalized expression MFI: 0.91 ± 0.14
  SERPINB3 normalized expression MFI: 1.69 ± 0.29
  SERPINB4 normalized expression MFI: 2.33 ± 0.38
  STAT1 normalized expression MFI: 3154.11 ± 139.56
  STAT3 normalized expression MFI: 1570.19 ± 51.51
  STAT4 normalized expression MFI: 5.42 ± 0.52
  STAT5A normalized expression MFI: 18.33 ± 1.83
  STAT5B normalized expression MFI: 36.62 ± 1.7
  STAT6 normalized expression MFI: 1013.25 ± 17.15
[5]
  MFI, normalized expression of IYK2: 283.93 ± 8.16
  MFI, normalized expression of TNF: 26.07 ± 1.13
  MFI, normalized expression of VEGFA: 600.98 ± 13.99
[6]
  MFI, normalized expression of IYK2: 307.36 ± 14.87
  MFI, normalized expression of TNF: 29.31 ± 2.52
  MFI, normalized expression of VEGFA: 582.24 ± 17.89
[7]
  MFI, normalized expression of IYK2: 280.63 ± 10.46
  MFI, normalized expression of TNF: 27.59 ± 1.64
  MFI, normalized expression of VEGFA: 572.2 ± 19.67
[8]
  MFI, normalized expression of IYK2: 283.28 ± 10.88
  MFI, normalized expression of TNF: 27.63 ± 2.3
  MFI, normalized expression of VEGFA: 541.01 ± 9.94
[9]
  MFI, normalized expression of IYK2: 217.28 ± 10.09
  MFI, normalized expression of TNF: 1.59 ± 0.22
  MFI, normalized expression of VEGFA: 210.34 ± 9.72
[10]
  AREG normalized expression MFI: 251.8 ± 23.68
  CCL17 normalized expression MFI: 0.94 ± 0.14
  CCL18 normalized expression MFI: 0.95 ± 0.19
  FLG normalized expression MFI: 219.44 ± 34.83
  IL6 normalized expression MFI: 5.15 ± 0.31
  IL8 normalized expression MFI: 58.9 ± 5.89
  IL17A normalized expression MFI: 0.43 ± 0.08
  IL22 normalized expression MFI: 0.62 ± 0.11
  IL23A normalized expression MFI: 9.55 ± 1.15
  IL31 normalized expression MFI: 0.91 ± 0.23
  ILIA normalized expression MFI: 84.51 ± 7.04
  JAK1 normalized expression MFI: 171.53 ± 9.49
  JAK2 normalized expression MFI: 25.25 ± 1.04
  JAK3 normalized expression MFI: 0.53 ± 0.09
  LOR normalized expression MFI: 12.79 ± 4.84
  S100A7 normalized expression MFI: 3.69 ± 0.84
  S100A12 normalized expression MFI: 0.61 ± 0.11
  SERPINB3 normalized expression MFI: 1.5 ± 0.27
  SERPINB4 normalized expression MFI: 1.84 ± 0.42
  STAT1 normalized expression MFI: 549.79 ± 12.18
  STAT3 normalized expression MFI: 750.9 ± 27.68
  STAT4 normalized expression MFI: 3.75 ± 0.33
  STAT5A normalized expression MFI: 1.12 ± 0.19
  STAT5B normalized expression MFI: 54.64 ± 4.79
  STAT6 normalized expression MFI: 762.04 ± 9.44
